“Also recorded” adds a separate entry of the source.
Columns and labels:
[1] = tested on: top off-target sites of HBB, CCR5 and HBA1 gRNAs in HSPCs; assay: NGS off-target analysis in gene targeted HSPCs; format: cell-based, human
Text: For this, we assessed the previously characterized top off-target site for CCR5 (OT39)^66, HBB (OT1)^72 and HBA1 (OT1)74 gRNAs in the gene targeted HSPCs using next generation sequencing (NGS). […] Blocking of specific off-target breaks is possible, however, if there were biologically important reasons to do so^79, 80. […] Thus, gene editing with AZD treatment increases the frequency alleles with WT sequence and deletion INDELs without the HDR donor template.
NGS analysis for off-target effects. For this, we used commercially available Amplicon-EZ next generation sequencing service from AZENTA, Inc. Previously characterized top off-target site for CCR5 (OT39), HBB (OT1) and HBA1 (OT1) gRNAs were analyzed. PCR was used to amplify a 350-450 bp region encompassing the off-target sites from genomic DNA of the gene targeted HSPCs. Following are the primers used for PCR,
Following PCR, the amplicons were purified using Genejet PCR purification kit (Thermo Fisher Scientific, cat: K0701). The samples were normalized to a concentration of 20 ng/μl and 25 μl volume was submitted for Amplicon-EZ NGS service (AZENTA, Inc). DNA library preparations, sequencing reactions, and bioinformatics analysis were conducted at AZENTA, Inc. DNA Library Preparation was done using NEBNext Ultra DNA Library Prep kit following the manufacturer's recommendations (NEB). […] DNA libraries were validated on the Agilent TapeStation (Agilent Technologies) and were quantified using Qubit 2.0 Fluorometer (Invitrogen) and multiplexed in equal molar mass. […] The raw Illumina reads were checked for adapters and quality via FastQC. The raw Illumina sequence reads were trimmed of their adapters and nucleotides with poor quality using Trimmomatic v.0.36. Paired sequence reads were then merged to form a single sequence if the forward and reverse reads were able to overlap. The merged reads were aligned to the reference sequence and variant detection was performed using AZENTA proprietary Amplicon-EZ program. INDEL frequency at the target site was quantified and plotted as the frequency of reads with insertions and deletions.

STING1 locus in PSCs = assay: RNP/AAV6 gene targeting at STING1 locus (V155M) in PSCs; format: cell-based, human
Method: In comparison, the untreated cells had around 30% INDELs (FIG. 4D-E).
For this, we tested gene targeting at the STING1 locus to introduce a point mutation (V155M) associated with an autoinflammatory disease called STING-associated vasculopathy with onset in infancy (SAVI)^86 (FIG. 12a). […] To test the feasibility of building a primary cell SAVI model, we next performed the STING1 gene targeting in human CD34+ HSPCs.
PSC culture and genome editing. Gene editing experiments were performed with three PSC lines: H9 embryonic stem cells (ESC) (WiCell) and the previously described 1205-4 and 1208-2 iPS cell lines^106. PSCs were maintained in feeder free conditions on Matrigel (corning, cat: 354277) coated plates in mTeSR1 medium ([…] technologies, cat: 85850). For gene editing, 24 h prior to nucleofection PSCs were pretreated with 10 μM of Y27632 (Cayman Chemical, cat: 10005583). […] PSCs were dissociated into single cells using Accutase (Innovative Cell Technologies, cat: AT104). […] Resuspended cells were added to one well of a 16-well Nucleocuvette Strip (Lonza) and nucleofection was performed in the 4D nucleofector (Lonza) using the program, CA137. […] Gene targeting efficiency was analyzed at 4-6 days post-editing.
(§1) ICE analysis for quantification of gene editing.

[2] = tested on: LT-HSC and MPP populations; assay: Gene targeting at CCR5 locus in FACS sorted LT-HSC and MPP; format: cell-based, human; settings: flow cytometry for GFP; 0.5 μM
CCR5 locus in PSCs = assay: Single cell cloning of PSCs gene targeted at CCR5 locus; format: cell-based, human
Method: Allelic gene targeting efficiency was unaffected by pretreatment with AZD7648 with or without post treatment when compared to the corresponding controls.
For single cell cloning, gene targeted PSCs were plated at a density of 250 cells per well of a 6-well plate in mTeSR1 medium supplemented with 1× CloneR™2 ([…] technologies, cat: 100-0691) and incubated at 37° C. for 2 days. After 2 days, medium was switched to fresh mTeSR1 medium supplemented with 1× CloneR™2. 2 days later, the cells were switched to and maintained in mTeSR1 medium with daily media changes. At D7-D10, single cell colonies were picked by scraping and were then propagated individually. Gene targeting was assessed in single cell clones by ddPCR as mentioned above and by PCR amplifying the region spanning the knock-in to determine the frequency of mono-, bi-allelic and non-targeted clones.

HBB locus in HSPCs = assay: Editing of SCD mutation at HBB locus in HSPCs (AAV6 or ssODN donor); format: cell-based, human
Text: as §1
CD34+ HSPC culture and genome editing.

HSPCs = settings: 72 h post-gene targeting at CCR5, HBA1 and HBB loci; 0.5 μM
Method: Cell viability measurement. MTT assay was used for measuring the gene edited PSC viability. […] After this incubation, MTT was removed, and cells were lysed using 100 μl of lysis buffer (0.1N HCl and 0.5% SDS in isopropanol). After lysis, absorbance was measured at 570 nm with 650 nm as the reference using a SpectraMax M3 plate reader (Molecular devices). The absorbance values were used to calculate the cell viability of gene edited cells as a percentage relative to the mock cells. […] Viable cell counts were represented as percentage relative to the mock or untreated cells as indicated.

## Cc1cc2ncnn2cc1Nc1ncc2c(n1)n(C1CCOCC1)c(=O)n2C [AZD7648, 7-methyl-2-((7-methyl-[1,2,4]triazolo[l,5-a]pyridin-6-yl)amino)-9-(tetrahydro-2H-pyran-4-yl)-7,9-dihydro-8H-purin-8-one]
[1]; OT1 site for HBA1 gRNA, untreated […]
  reads with INDELs at off-target site: around 0.5%
[1]; OT1 site for HBB gRNA, 0.5 μM, untreated 1%
  reads with INDELs at off-target site: about 3%
[1]; OT39 site for CCR5 gRNA, untreated below detection limit
  reads with INDELs at off-target site: 0.03%
STING1 locus in PSCs; active gRNA (sg3)
  INDELs after gene targeting: without INDELs; also recorded: no INDELs
STING1 locus in PSCs; seemingly inactive gRNA (sg5), 0.5 μM
  INDELs after gene targeting: without indels; also recorded: no INDELs
[2]
  improvement of frequency of gene targeted cells: more than 2.5 fold
CCR5 locus in PSCs; 0.1 μM
  clones with bi-allelic knock-in: 60%
CCR5 locus in PSCs; 0.5 μM, untreated 30%
  clones with bi-allelic knock-in: 90%
HBB locus in HSPCs; AAV6 donor, 0.5 μM
  INDELs after gene targeting: almost no INDELs; also recorded: nearly INDEL-free levels
HBB locus in HSPCs; ssODN donor […], AZD7648 0.5 μM, untreated 49%
  gene targeting frequency: 65%
HSPCs
  viable cell count vs mock cells: only a small drop in viable cell count

Source: US20250305004A1, “ENHANCING GENE TARGETING EFFICIENCY IN HUMAN CELLS WITH DNA-PK INHIBITOR TREATMENT” (The Board of Trustees of the Leland Stanford Junior …, priority 2022, published 2025)
